Measurements reported in the supplement of paper PMC10307832.

How the values were obtained:
Assay in all cases: relative viability (nuclei count vs DMSO), 5 days (fraction); higher = more cells survive
[1] = compound: O[C@@H](COc1cccc2ncccc12)CN1CCN([C@@H]2c3ccccc3[C@@H]3[C@H](c4ccccc42)C3(F)F)CC1 [Zosuquidar] + Nc1nc2[nH]cc(CCc3ccc(C(=O)N[C@@H](CCC(=O)O)C(=O)O)cc3)c2c(=O)[nH]1 [Pemetrexed] (partner 0.2 µM)
How it was run: (§1)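 Relative viability was taken as the ratio of nuclei in treated wells to nuclei in vehicle wells. Lung cancer cell lines in 1536-well plates received compounds by pin tool one day after seeding, either one drug alone or a fixed anchor-drug dose plus five library-drug doses (not always all listed) in √10 steps. Nuclei were counted on 4× images after 5 days of treatment, and values are medians of duplicate plates.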

[2] = compound: COc1cc2nccc(Oc3ccc(NC(=O)C4(C(=O)Nc5ccc(F)cc5)CC4)cc3)c2cc1OC [Cabozantinib] + Cc1cc(Nc2cc(N3CCN(C)CC3)nc(Sc3ccc(NC(=O)C4CC4)cc3)n2)n[nH]1 [Tozasertib] (partner 0.1 µM)
How it was run: as §1

[3] = compound: O[C@@H](COc1cccc2ncccc12)CN1CCN([C@@H]2c3ccccc3[C@@H]3[C@H](c4ccccc42)C3(F)F)CC1 [Zosuquidar] + CC1(C)CCC(c2ccc(Cl)cc2)=C(CN2CCN(c3ccc(C(=O)NS(=O)(=O)c4ccc(N[C@H](CCN5CCOCC5)CSc5ccccc5)c(S(=O)(=O)C(F)(F)F)c4)cc3)CC2)C1 [Navitoclax] (partner 0.5 µM)
How it was run: as §1

[4] = compound: COc1cc2nccc(Oc3ccc(NC(=O)C4(C(=O)Nc5ccc(F)cc5)CC4)cc3)c2cc1OC [Cabozantinib] + CC(C)C[C@H](NC(=O)[C@H](Cc1ccccc1)NC(=O)c1cnccn1)B(O)O [Bortezomib] (partner 0.002 µM)
How it was run: as §1

| Cell Line | relative viability ([1]; first compound 0.01 µM) | relative viability ([1]; first compound 0.03162 µM) | relative viability ([1]; first compound 0.1 µM) | relative viability ([1]; first compound 0.3162 µM) | relative viability ([1]; first compound 1 µM) | relative viability ([2]; first compound 0.02 µM) | relative viability ([2]; first compound 0.06325 µM) | relative viability ([2]; first compound 0.2 µM) | relative viability ([2]; first compound 0.6325 µM) | relative viability ([2]; first compound 2 µM) | relative viability ([3]; first compound 0.01 µM) | relative viability ([3]; first compound 0.03162 µM) | relative viability ([3]; first compound 0.1 µM) | relative viability ([3]; first compound 0.3162 µM) | relative viability ([3]; first compound 1 µM) | relative viability ([4]; first compound 0.02 µM) | relative viability ([4]; first compound 0.06325 µM) | relative viability ([4]; first compound 0.2 µM) | relative viability ([4]; first compound 0.6325 µM) | relative viability ([4]; first compound 2 µM) |
| --- | --- | --- | --- | --- | --- | --- | --- | --- | --- | --- | --- | --- | --- | --- | --- | --- | --- | --- | --- | --- |
| EMC-BAC-2 | 0.459 | 0.417 | 0.441 | 0.457 | 0.335 | 0.292 | 0.335 | 0.334 | 0.284 | 0.295 | 1.19 | 0.795 | 1.05 | 1.18 | 1.12 | 0.982 | 1.2 | 1.01 | 1.07 | 1.17 |
| NCI-H2009 | 1.04 | 1.04 | 1.01 | 0.902 | 1.06 | 0.827 | 0.889 | 0.768 | 0.699 | 0.668 | 1.19 | 1.12 | 1.13 | 1.1 | 1.14 | 1.06 | 1.15 | 1.07 | 1.16 | 0.998 |
| NCI-H2405 | 1.08 | 0.914 | 0.956 | 1.2 | 0.23 | 0.743 | 0.856 | 0.777 | 0.789 | 0.667 | 1.01 | 0.853 | 0.723 | 1.07 | 0.894 | 0.947 | 1.06 | 0.989 | 0.871 | 1.04 |
| NCI-H322M | 0.623 | 0.537 | 0.548 | 0.582 | 0.575 | 0.488 | 0.511 | 0.425 | 0.439 | 0.436 | 1.26 | 1.16 | 1.08 | 1.29 | 1.14 | 1.2 | 1.34 | – | 1.17 | 1.36 |
| NCI-H2085 | 0.953 | 0.697 | – | 0.956 | 0.904 | 0.87 | 0.852 | 0.818 | 0.655 | 0.527 | 1.13 | 1.06 | 1.06 | 1.2 | 1.14 | 1.22 | 1.14 | 1.08 | 1.01 | 1.03 |
| RERF-LC-KJ | 0.456 | 0.459 | 0.478 | 0.518 | 0.467 | 0.588 | 0.51 | 0.505 | 0.438 | 0.412 | 0.99 | 0.853 | 0.947 | 1.11 | 0.844 | 1.11 | 1.04 | 1.26 | 1.05 | 1.06 |
| NCI-H1355 | 1.01 | 1 | 0.916 | 1.11 | 1.03 | 0.583 | 0.66 | 0.502 | 0.503 | 0.356 | 1.06 | 0.951 | 0.797 | 0.954 | 1 | 1.05 | 1.29 | 1.12 | 1.23 | 1.18 |
| NCI-H1650 | 0.378 | 0.373 | 0.327 | 0.479 | 0.401 | 0.384 | 0.612 | 0.356 | 0.34 | 0.244 | 1.12 | 1.11 | 1.05 | 1.23 | 1.21 | 0.182 | 0.212 | 0.184 | 0.199 | 0.222 |
